Laboratory results as given in patent US20250179502A1, “TARGETING NEUROPILIN 2 (NRP2) IN LETHAL PROSTATE CANCER” (UNIVERSITY OF MASSACHUSETTS, priority 2022, published 2025).
Numbered stars: 1 amine (or outer) side, 2 acyl side, 3 side chain; on linkers, the order of the positions; unused ones are H or OH. Bridge positions count the residues as written; N and C are the ends. Square brackets hold non-standard residues; d marks the D form. Peptide text beside a SMILES is read from it. I, II: the chains in the order shown. Actinocin(9to1) = Cc1c2oc3c(C)ccc(C(=O)[*:1])c3nc-2c(C(=O)[*:2])c(N)c1=O; NMeV = CN[C@H](C(=O)O)C(C)C; Sar = CNCC(=O)O

Tests used:
Nrp2-b1b2 = molecular target: T1, Nrp2-b1b2 (Homo sapiens, UniProt O60462); conditions: cited from earlier work
T1 sequence (O60462 276-595 limits assumed): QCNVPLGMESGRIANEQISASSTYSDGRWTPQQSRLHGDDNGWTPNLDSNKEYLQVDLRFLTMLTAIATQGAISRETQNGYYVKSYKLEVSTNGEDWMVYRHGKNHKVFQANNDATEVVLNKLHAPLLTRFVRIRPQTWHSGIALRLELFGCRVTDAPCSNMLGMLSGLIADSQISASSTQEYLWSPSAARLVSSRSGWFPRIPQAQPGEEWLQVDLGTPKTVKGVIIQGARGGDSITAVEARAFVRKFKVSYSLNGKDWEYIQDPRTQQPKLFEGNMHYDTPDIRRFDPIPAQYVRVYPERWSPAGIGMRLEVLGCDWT

PD-L1 mRNA in PC3 = test: PD-L1 mRNA by qPCR in PC3 cells treated with YAP inhibitor; type: cell-based, human; conditions: Verteporfin 2 μM for 24 hours versus DMSO
Protocol: (D) Bar graphs show fold change of PD-L1/18S mRNA in PC3 treated with DMSO versus PC3 treated with YAP inhibitor (Verteporfin) from 3 independent experiments determined by qPCR.
The following reagents were used: CellTrace™ Violet Cell Proliferation Kit (Thermo Fisher, C34571), eBioscience™ Fixable Viability Dye eFluor™ 780 (Invitrogen, 65-0865-14). Verteporfin was purchased from Tocris and used at a concentration of 2 μM for 24 hours.
Real-time qPCR. RNA extraction was accomplished using an RNA isolation kit (BS88133, Bio Basic Inc.), and cDNAs were produced using a qScript cDNA syn-thesis kit (#95047, Quantabio). SYBR Green (Applied Biosystems) was used as the qPCR master mix. Experiments were performed in triplicate and normalized to 18S. qPCR primer sequences were obtained from the Massachusetts General Hospital/Harvard Medical School PrimerBank (pga.mgh. harvard.edu/primerbank/).

Compound	AP-VEGF-C/Nrp2-b1b2 binding (Nrp2-b1b2)	PD-L1 mRNA level (PD-L1/18S) (PD-L1 mRNA in PC3)
Oc1cc2c(cc1O)[C@H]1c3ccccc3CN[C@@H]1CC2 (racemic) [Dihydrexidine]	inhibit	
Cc1c2oc3c(C)ccc(C(=O)N[C@@H]4C(=O)N[C@H](C(C)C)C(=O)N5CCC[C@H]5C(=O)N(C)CC(=O)N(C)[C@@H](C(C)C)C(=O)O[C@@H]4C)c3nc-2c(C(=O)N[C@@H]2C(=O)N[C@H](C(C)C)C(=O)N3CCC[C@H]3C(=O)N(C)CC(=O)N(C)[C@@H](C(C)C)C(=O)O[C@@H]2C)c(N)c1=O [Actinomycin D] (I: T[dV]P[Sar][NMeV] / II: T[dV]P[Sar][NMeV]; ester I:1-I:C, II:1-II:C; linker I:N-II:N via Actinocin(9to1))	inhibit	
COc1cc(C(=O)NS(=O)(=O)c2ccccc2C)ccc1Cc1cn(C)c2ccc(NC(=O)OC3CCCC3)cc12 [Zafirlukast]	inhibit	
Verteporfin		significantly reduced
